In the SangsterLogP compilation:

Assay: method code SF, from DOI: 10.1021/jf00121a034

Structure (SMILES) | logP
CN(C)C(=O)Nc1cccc(N)c1 | -0.1
CON(C)C(=O)Nc1ccc(OCCc2cccc3ccccc23)cc1 | 4.81
CON(C)C(=O)Nc1ccc(OCCc2ccc(C)cc2)cc1 | 3.81
CON(C)C(=O)Nc1ccc(N)cc1 | -0.16
CON(C)C(=O)Nc1ccc(C2CCCCC2)cc1 | 4.08
CON(C)C(=O)Nc1ccc(OCc2ccccc2)cc1 | 3.11
CON(C)C(=O)Nc1ccc(C(C)C)cc1 | 2.95
CON(C)C(=O)Nc1cccc(F)c1 | 1.68
CON(C)C(=O)Nc1cccc(O)c1 | 0.82
CC(C)c1ccc(NC(=O)N(C)C)cc1 | 2.87
CON(C)C(=O)Nc1ccc(OC(C)CC2CCCCC2)cc1 (configuration not stated) | 4.51
CON(C)C(=O)Nc1ccc(CCCCc2ccccc2)cc1 | 5.15
CN(C)C(=O)Nc1ccc(C(=O)c2ccccc2)cc1 | 2.59
CON(C)C(=O)Nc1ccc(C(C)=O)cc1 | 1.22
CON(C)C(=O)Nc1ccc(OCCCCOc2ccccc2)cc1 | 3.86
CCCCCCCCCCCCOc1ccc(NC(=O)N(C)C)cc1 | 6.93
CON(C)C(=O)Nc1ccc(C(=O)c2ccccc2)cc1 | 2.86
CON(C)C(=O)Nc1ccc(NS(C)(=O)=O)cc1 | 0.14
CN(C)C(=O)Nc1cccc(O)c1 | 0.51
CON(C)C(=O)Nc1cccc(C(C)(C)C)c1 | 3.21
CON(C)C(=O)Nc1ccc(CCCc2ccccc2)cc1 | 4.67

Structure (SMILES) | logP
CON(C)C(=O)Nc1cccc([N+](=O)[O-])c1 | 1.64
CON(C)C(=O)Nc1cccc(OCC(=O)C23CC4CC(CC(C4)C2)C3)c1 | 3.79
CON(C)C(=O)Nc1ccc(F)cc1 | 1.46
CON(C)C(=O)Nc1ccc(CCCc2ccc(Cl)cc2)cc1 | 5.35
CC(=O)c1cccc(NC(=O)N(C)C)c1 | 0.95
CCNc1ccc(NC(=O)N(C)OC)cc1 | 0.83
CON(C)C(=O)Nc1ccc([N+](=O)[O-])cc1 | 1.74
CON(C)C(=O)Nc1cccc(C(F)(F)F)c1 | 2.64
CON(C)C(=O)Nc1cccc(CO)c1 | 0.62
CN(C)C(=O)Nc1cccc([N+](=O)[O-])c1 | 1.46
CON(C)C(=O)Nc1ccc(CCCc2ccc(-c3ccccc3)cc2)cc1 | 6.54
CON(C)C(=O)Nc1cccc(OCCCCOc2ccccc2)c1 | 3.86
CON(C)C(=O)Nc1ccc(OCCC2CCCCC2)cc1 | 4.46
CN(C)C(=O)Nc1cccc(OCCc2ccccc2)c1 | 3.39
CON(C)C(=O)Nc1ccc(OCC(=O)C23CC4CC(C2)C4C3)c(Cl)c1 (configuration not stated) | 4.48
CCOC(=O)c1ccc(NC(=O)N(C)OC)cc1 | 2.24
CCCCc1cccc(NC(=O)N(C)C)c1 | 3.23
CON(C)C(=O)Nc1ccc(OCC(=O)C23CC4CC(CC(C4)C2)C3)cc1 | 3.53
CON(C)C(=O)Nc1ccc(C=C(C#N)C#N)cc1 | 2.19
CN(C)C(=O)Nc1ccc(C2CCCCC2)cc1 | 3.83
CON(C)C(=O)Nc1ccccc1 | 1.29
